Experimental data taken from patent US9757375B2, “Compounds that inhibit human DNA ligases and methods of treating cancer” (University of Maryland, Baltimore, priority 2007, dated 2017).
Like-named read-outs stand apart in the source and are kept apart here. Marks after values point to notes of the source that are not given here. Values belong to the molecule of their own block, whether it stands above or below them.

Columns and labels:
MCF10A cells [1] = assay: Screen for potentiation of DNA damaging agents (MMS, camptothecin, cis-platinum, 3 aminobenzamide, ionizing radiation); type: cell-based, human; conditions: compound alone vs combination with MMS (100 μM); 1 = no sensitization
From the text: The 192 human DNA ligase inhibitors were screened in parallel for effects on proliferation and the ability to potentiate the effects of several DNA damaging agents using two cell human lines, a colon cancer line HCT116 and a normal breast epithelial cell line MCF10A using a Biomek FX Laboratory Automation Workstation as described (23). The DNA damaging agents used, methyl methanesulfonate (MMS), camptothecin, cis-platinum, 3 aminobenzamide and ionizing radiation, are representatives of classes of agents used to treat cancer. Briefly, HCT116 and MCF10A cells were plated in 96 well plates such that the cultures were about 80% confluent after 5 days incubation. Compounds were added to the cultures at either 15 μM or 50 μM 1 day after plating. After incubation for 3 days, cell lysed in a solution containing 1.2% Igepal CA-630 and SYBR green that stains DNA (1:1000, Molecular Probes, Eugene, Oreg.). Subsequently, fluorescence was measured per well. The studies with DNA damaging agents were performed as follows. […] Cultures were incubated for 3 days and then treated as above.

HCT116 cells = assay: MTT cell growth assay; type: cell-based, human; conditions: Homo sapiens, HCT-116
Experimental: (§1) The activity of hits from the initial screen was further validated using the MTT assay. Briefly, MCF10A and HCT116 cells were seeded in 96 well plates at 300 and 1200 cells per well, respectively, and allowed to adhere overnight. The following day, serial dilutions of compounds in media were added to the cells in a final volume 200 μl. After incubation for 5 days, MTT reagent (3-(4,5-dimthylthiazol-2-yl)-2,5-diphenyltatrazolium) was added and incubation was continued for 4 h. Formazan crystals generated by reduction of the MTT reagent in mitochondria were solubilized with isopropanol prior to the measurement of absorbance at 560 nm wavelength in a plate reader.
After incubation for 5 days, cell growth was measured by the MTT assay (16).

MCF10A cells [2] = assay: MTT cell growth assay; type: cell-based, human; conditions: for IC50: Homo sapiens, MCF-10A
Experimental: as §1
To extend the results of the […] cell culture screening assay, a subset of compounds were tested in larger cultures. Different concentrations of Compounds 67 and 151 were added to asynchronous subconfluent populations of HCT116 and MCF10A cells. Asynchronous subconfluent populations of HCT116 and MCF10A cells were pre-treated with different concentrations of compound 64 prior to the addition of 3 aminobenzamide (2 mM) MMS (100 μM) or cis-platinum (1 μM). After incubation for 5 days, cell growth was measured by the MTT assay (16).

human DNA ligase III = molecular target: T1, human DNA ligase III (Homo sapiens, UniProt P49916); assay: High-throughput fluorescence-based DNA joining (ligation) assay; type: biochemical; conditions: for inhibition at 100 µM: read-out: % of inhibition @ 100 μM (Helen's data) hLigIII
T1 sequence (P49916 1-862 isoform P49916-4): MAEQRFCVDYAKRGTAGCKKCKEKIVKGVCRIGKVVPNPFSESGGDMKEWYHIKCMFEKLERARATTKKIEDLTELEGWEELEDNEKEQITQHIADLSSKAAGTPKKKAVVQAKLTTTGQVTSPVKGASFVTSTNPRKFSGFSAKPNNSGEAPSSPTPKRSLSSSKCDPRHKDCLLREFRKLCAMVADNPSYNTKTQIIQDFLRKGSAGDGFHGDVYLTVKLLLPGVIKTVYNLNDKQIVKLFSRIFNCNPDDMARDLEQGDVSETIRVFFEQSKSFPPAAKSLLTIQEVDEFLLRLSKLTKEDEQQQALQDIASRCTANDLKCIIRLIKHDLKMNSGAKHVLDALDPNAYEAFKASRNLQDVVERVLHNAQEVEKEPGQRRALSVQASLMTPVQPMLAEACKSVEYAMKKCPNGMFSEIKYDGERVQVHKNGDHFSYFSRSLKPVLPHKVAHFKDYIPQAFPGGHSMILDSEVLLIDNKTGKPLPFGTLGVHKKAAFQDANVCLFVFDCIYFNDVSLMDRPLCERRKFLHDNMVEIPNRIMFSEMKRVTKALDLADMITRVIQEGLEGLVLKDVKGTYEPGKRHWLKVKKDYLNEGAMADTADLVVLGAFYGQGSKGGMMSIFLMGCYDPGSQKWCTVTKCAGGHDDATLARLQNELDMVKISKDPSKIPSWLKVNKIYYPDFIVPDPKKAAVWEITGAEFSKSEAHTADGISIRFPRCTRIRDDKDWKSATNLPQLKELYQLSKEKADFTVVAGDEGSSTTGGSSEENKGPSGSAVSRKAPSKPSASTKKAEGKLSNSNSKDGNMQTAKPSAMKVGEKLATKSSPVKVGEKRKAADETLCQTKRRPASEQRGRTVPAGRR
From the text: (§2) The method for screening compounds comprises testing the compound for the ability to inhibit human DNA ligases I, III and IV with a high throughput fluorescence-based ligation assay. In this assay, phosphodiester bond formation covalently links together two oligonucleotides, one of which is a fluorescent donor AF488 that is 11 nucleotides from the 3′ terminus and the other contains a fluorescence acceptor and quencher, BHQ1 that is 15 nucleotides from the 5′ terminus. When these oligonucleotides are present in separate duplexes and in the same nicked or intact duplex, there is no significant quenching of fluorescence because the donor and acceptor are too far apart. As single-strands neither the AF488 oligonucleotide nor the BHQ1 oligonucleotides have significant secondary structure. However, when these oligonucleotides are ligated together, the resultant single strand forms a stable hairpin structure, in which the AF488 and BHQ1 groups are very close together, resulting in efficient intra-molecular quenching of fluorescence. Thus, in the DNA joining assay, the DNA substrate is denatured after incubation with the DNA ligase and then renatured in the presence of a 20-fold excess of an oligonucleotide that is identical to the ligated strand containing the fluorescent door and acceptor except that it lacks these modifications. Using this assay, DNA joining, which results in reduced fluorescence at 518 nm, can be measured rapidly, quantitatively and with high-throughput using a fluorescence plate reader.
(§3) Applicants developed a novel high throughput fluorescence-based ligation assay by modifying the sequence of the oligos to optimize hairpin formation by the single strand ligated product of the high throughput fluorescence-based ligation assay of Chen et al (22). […] Compound stock solutions, which were 10 mM in 0.5% DMSO, were diluted in 0.5% DMSO. Human DNA ligases I and III were assayed with a nicked DNA substrate whereas as the substrate for human DNA ligase IV was two oligonucleotide duplexes with short complementary single strand ends.

human DNA ligase IV = human DNA ligase IV (Homo sapiens, UniProt P49917); assay: as above; type: biochemical; conditions: 100 μM; for inhibition at 100 µM: read-out: % of inhibition @ 100 μM (Helen's data) hLigIV
From the text: as §2, §3

hLigI = molecular target: T2, hLigI (Homo sapiens, UniProt P18858); assay: as above; type: biochemical; conditions: for inhibition at 100 µM: read-out: % of inhibition @ 100 μM (Helen's data) hLigI
T2 construct: made in house
Experimental: Candidate ligase inhibitors identified by CADD were assayed for their ability to inhibit hLigI and T4 DNA ligase using a high-throughput, fluorescence energy transfer-based DNA joining assay (22). Duplicate reactions (30 μL) containing 10 pmol of nicked DNA substrate and either 0.25 pmol of hLigI or 10 units of T4 DNA ligase were incubated in the presence or absence of 100 μmol/L of the putative inhibitor. DNA binding by the candidate DNA ligase inhibitors was measured by displacement of ethidium bromide from DNA as previously described (30).
as §2, §3

MCF10A cells [3] = assay: Cell proliferation screen (SYBR Green, Biomek FX); type: cell-based, human; conditions: 50 μM; percentage of values obtained with DMSO alone
Experimental: The ability of the compounds identified by CADD to inhibit proliferation of normal mammary epithelial MCF10A cells and colon carcinoma HCT116 cells was determined using a Biomek FX Laboratory Automation Workstation (Beckman Coulter, Inc., Fullerton, Calif.). On day 0, 20 μl of complete medium containing the appropriate number of cells (150-300) was plated per well of a 384-well tissue plate (Fisher Scientific, Hampton, N.H.) and incubated overnight at 37° C. with 5% CO2 and 90% humidity. Next day, day 1, compounds were prepared by serial dilution with complete medium to yield the concentration 100 μM, and 20 μl was added to each well containing 20 μl of medium and cells yielding the final concentration 50 μM in 40 μl volume. Plates were incubated for additional 3 days (days-2-5) until control cells (0.5% DMSO) reached ˜70-80% confluency. On day 6, 40 μl of lysis/detection solution containing 1.2% Igepal CA-630 (Sigma) and a 1:1000 dilution of SYBR Green I nucleic acid stain (Molecular Probes, Eugene, Oreg.) was added to each well. Following an overnight incubation at 37° C., total fluorescence was measured using a Fluorostar Galaxy plate reader with a 485 nm excitation filter and 520 nm emission filter set (BMG Labtech, Inc., Durham, N.C.). Data was exported to a custom program that determined growth inhibition by dividing each individual fluorescence value by the average of fluorescence values obtained with cells treated with DMSO alone.
The 192 human DNA ligase inhibitors were screened in parallel for effects on proliferation and the ability to potentiate the effects of several DNA damaging agents using two cell human lines, a colon cancer line HCT116 and a normal breast epithelial cell line MCF10A using a Biomek FX Laboratory Automation Workstation as described (23). The DNA damaging agents used, methyl methanesulfonate (MMS), camptothecin, cis-platinum, 3 aminobenzamide and ionizing radiation, are representatives of classes of agents used to treat cancer. Briefly, HCT116 and MCF10A cells were plated in 96 well plates such that the cultures were about 80% confluent after 5 days incubation. Compounds were added to the cultures at either 15 μM or 50 μM 1 day after plating. After incubation for 3 days, cell lysed in a solution containing 1.2% Igepal CA-630 and SYBR green that stains DNA (1:1000, Molecular Probes, Eugene, Oreg.). Subsequently, fluorescence was measured per well. The studies with DNA damaging agents were performed as follows. […] For ionizing radiation, cells were pre-incubated with the compounds at 50 μM for 1 hour prior to exposure to 2 gray of ionizing radiation. Cultures were incubated for 3 days and then treated as above.

[4] = sections 'high concentrations (~50 μM)' and 'active in vitro that decreased cell growth', same figures given in μM elsewhere in Table 6, read-out: IC50 MCF10A (head without unit)

Sequence of human DNA ligase IV (P49917 whole entry): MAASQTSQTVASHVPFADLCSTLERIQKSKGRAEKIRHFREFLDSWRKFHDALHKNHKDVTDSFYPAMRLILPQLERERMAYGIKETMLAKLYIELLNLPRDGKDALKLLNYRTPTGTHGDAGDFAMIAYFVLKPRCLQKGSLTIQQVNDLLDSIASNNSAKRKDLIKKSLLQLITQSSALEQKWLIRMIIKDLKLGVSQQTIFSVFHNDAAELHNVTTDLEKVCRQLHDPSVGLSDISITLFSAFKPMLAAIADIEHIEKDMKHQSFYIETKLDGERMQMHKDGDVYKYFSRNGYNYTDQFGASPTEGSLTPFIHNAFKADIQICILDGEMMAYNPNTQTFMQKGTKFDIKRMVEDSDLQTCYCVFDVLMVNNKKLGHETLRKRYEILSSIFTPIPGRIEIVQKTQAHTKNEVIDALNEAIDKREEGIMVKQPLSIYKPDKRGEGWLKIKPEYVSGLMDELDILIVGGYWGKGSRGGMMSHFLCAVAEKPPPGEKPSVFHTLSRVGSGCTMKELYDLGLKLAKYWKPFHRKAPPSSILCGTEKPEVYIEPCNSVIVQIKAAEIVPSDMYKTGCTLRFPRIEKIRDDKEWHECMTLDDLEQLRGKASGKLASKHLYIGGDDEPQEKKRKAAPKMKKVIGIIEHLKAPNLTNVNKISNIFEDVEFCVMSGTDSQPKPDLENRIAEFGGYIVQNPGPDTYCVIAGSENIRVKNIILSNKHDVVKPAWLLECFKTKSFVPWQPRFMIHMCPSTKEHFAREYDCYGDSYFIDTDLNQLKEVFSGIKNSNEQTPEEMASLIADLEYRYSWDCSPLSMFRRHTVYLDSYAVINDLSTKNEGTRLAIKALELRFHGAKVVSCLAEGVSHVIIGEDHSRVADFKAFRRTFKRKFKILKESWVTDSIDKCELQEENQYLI
Sequence of human DNA ligase IV (Q13426 whole entry partner): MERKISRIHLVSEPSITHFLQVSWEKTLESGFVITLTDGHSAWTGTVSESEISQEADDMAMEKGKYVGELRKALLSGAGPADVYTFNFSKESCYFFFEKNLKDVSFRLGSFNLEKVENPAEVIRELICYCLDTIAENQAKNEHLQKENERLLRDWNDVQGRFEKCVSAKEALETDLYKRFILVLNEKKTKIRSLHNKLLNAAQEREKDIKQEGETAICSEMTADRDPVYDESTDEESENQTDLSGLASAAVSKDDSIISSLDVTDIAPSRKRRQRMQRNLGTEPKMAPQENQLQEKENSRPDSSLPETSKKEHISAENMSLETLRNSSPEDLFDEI
T2 sequence (P18858 whole entry): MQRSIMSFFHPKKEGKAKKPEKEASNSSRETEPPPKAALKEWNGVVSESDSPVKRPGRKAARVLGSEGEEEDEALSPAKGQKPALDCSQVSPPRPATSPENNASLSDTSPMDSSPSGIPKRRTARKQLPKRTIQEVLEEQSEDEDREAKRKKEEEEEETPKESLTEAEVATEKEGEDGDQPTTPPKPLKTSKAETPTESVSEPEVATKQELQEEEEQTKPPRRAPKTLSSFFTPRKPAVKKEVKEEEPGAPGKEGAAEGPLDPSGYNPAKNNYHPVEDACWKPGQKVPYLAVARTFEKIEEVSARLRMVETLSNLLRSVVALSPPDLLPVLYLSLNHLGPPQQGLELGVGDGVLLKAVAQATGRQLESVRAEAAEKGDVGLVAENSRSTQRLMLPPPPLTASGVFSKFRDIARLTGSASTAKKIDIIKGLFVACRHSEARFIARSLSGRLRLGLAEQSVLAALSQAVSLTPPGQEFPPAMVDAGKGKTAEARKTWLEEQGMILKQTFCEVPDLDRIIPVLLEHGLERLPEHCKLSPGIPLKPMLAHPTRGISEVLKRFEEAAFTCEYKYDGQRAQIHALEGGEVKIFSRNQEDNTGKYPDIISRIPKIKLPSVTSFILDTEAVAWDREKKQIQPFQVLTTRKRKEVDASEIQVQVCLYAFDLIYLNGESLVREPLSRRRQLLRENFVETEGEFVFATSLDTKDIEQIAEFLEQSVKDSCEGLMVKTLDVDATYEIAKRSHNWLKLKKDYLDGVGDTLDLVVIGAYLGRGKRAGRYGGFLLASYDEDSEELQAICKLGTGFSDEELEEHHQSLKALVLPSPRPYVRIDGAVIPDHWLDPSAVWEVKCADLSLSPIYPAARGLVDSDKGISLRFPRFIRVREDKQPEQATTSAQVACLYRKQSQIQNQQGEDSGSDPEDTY

IC50 (HCT116 cells; cell growth, compound alone, read-out: IC50 (μM) HCT116): 50 µM | IC50 (HCT116 cells; sections 'high concentrations (~50 μM)' and 'active in vitro that decreased cell growth', same figures given in μM elsewhere in Table 6, read-out: IC50 HCT116 (head without unit)): ≥ 50 µM | inhibition at 100 µM (human DNA ligase III): < 20% | inhibition at 100 µM (human DNA ligase IV): < 20% | inhibition at 100 µM (hLigI; 100 μM): < 20%
Compound: C=CCN1C(=O)/C(=C\c2ccccc2C(=O)O)SC1=S [Compound 159]
MMS: Ratios of IC50 MCF10A (MCF10A cells [1]): Ni | IC50 (MCF10A cells [2]; [4]): > 50 µM

% of inhibition @ 100 μM (Helen's data) hLigIII (human DNA ligase III; 100 μM): NI (NI- no inhibition) | % of inhibition @ 100 μM (Helen's data) hLigIV (human DNA ligase IV): NI (NI- no inhibition) | % of inhibition @ 100 μM (Helen's data) hLigI (hLigI; 100 μM): NI (NI- no inhibition)
Compound: CC(C(=O)Nc1cccc(C(=O)O)c1)N(C)S(=O)(=O)c1ccccc1 (stereo not drawn) [Compound 199]
inhibition of cell proliferation of MCF10A at 50 μM (MTT) (MCF10A cells [2]; 50 μM, numbers printed under MCF10A in r92-r106: 79, 124, 130, 193, 197, 198, 199 (30%), 214, 221): 199^t (30%)

inhibition of hLigI (DNA ligase I), in words (hLigI; in vitro screen, 100 μmol/L, the 15 hLigI inhibitors inhibited by >50%): inhibited hLigI
Compound: O=C1N/C(=N\c2ccccc2)S/C1=C/c1ccc(-c2cccc(C(=O)O)c2)o1 [Compound 202]
Growth_Inh % (50 μM) MCF10A (MCF10A cells [3]): 50%

inhibition at 100 µM (human DNA ligase III): 24% | inhibition at 100 µM (human DNA ligase IV): < 20% | inhibition at 100 µM (hLigI; 100 μM): 21%
Compound: O=c1[nH]cc(/C=N/Nc2ncnc3[nH]cnc23)c(=O)[nH]1 [Compound 208]
IC50 (MCF10A cells [2]; cell growth, compound alone, read-out: IC50 (μM) MCF10A): 40 µM | IC50 (MCF10A cells [2]; [4]): 40 µM
